# Measurements reported in ChEMBL document CHEMBL5233238, “Research progress on sirtuins family members and cell senescence” (2020).
# What was measured:
# Format in all cases: functional
# Caenorhabditis elegans [1] = experiment: Regulation of metabolic activity in […] assessed as increasing in average life span at 50 mol/L relative to control
# Caenorhabditis elegans [2] = experiment: Regulation of metabolic activity in […] assessed as increasing in average life span at 25 mol/L relative to control
# Caenorhabditis elegans [3] = experiment: Regulation of metabolic activity in […] assessed as increasing in average life span at 100 mol/L relative to control
smiles,measurement,setting,value
CN(C)C(=N)NC(=N)N [METFORMIN],Activity,Caenorhabditis elegans [1],36%
same,Activity,Caenorhabditis elegans [2],18%
same,Activity,Caenorhabditis elegans [3],3%
